What was measured:
[1] = molecular target: Metabotropic glutamate receptor 5 (Rattus norvegicus, UniProt P31424); assay: Negative allosteric modulator activity at rat mGlu5 expressed in HEK293A cells assessed as reduction in glutamate-induced calcium mobilization; type: functional, cell-based, HEK293-A
[2] = molecular target: Metabotropic glutamate receptor 5 (Rattus norvegicus) (UniProt P31424); assay: Negative allosteric modulator activity at rat mGlu5 expressed in HEK293A cells assessed as reduction in 100 uM glutamate-induced calcium mobilization at 30 uM; type: functional, cell-based; conditions: HEK293-A
Chain of Metabotropic glutamate receptor 5 (Rattus norvegicus) (P31424 21-1203 limits assumed): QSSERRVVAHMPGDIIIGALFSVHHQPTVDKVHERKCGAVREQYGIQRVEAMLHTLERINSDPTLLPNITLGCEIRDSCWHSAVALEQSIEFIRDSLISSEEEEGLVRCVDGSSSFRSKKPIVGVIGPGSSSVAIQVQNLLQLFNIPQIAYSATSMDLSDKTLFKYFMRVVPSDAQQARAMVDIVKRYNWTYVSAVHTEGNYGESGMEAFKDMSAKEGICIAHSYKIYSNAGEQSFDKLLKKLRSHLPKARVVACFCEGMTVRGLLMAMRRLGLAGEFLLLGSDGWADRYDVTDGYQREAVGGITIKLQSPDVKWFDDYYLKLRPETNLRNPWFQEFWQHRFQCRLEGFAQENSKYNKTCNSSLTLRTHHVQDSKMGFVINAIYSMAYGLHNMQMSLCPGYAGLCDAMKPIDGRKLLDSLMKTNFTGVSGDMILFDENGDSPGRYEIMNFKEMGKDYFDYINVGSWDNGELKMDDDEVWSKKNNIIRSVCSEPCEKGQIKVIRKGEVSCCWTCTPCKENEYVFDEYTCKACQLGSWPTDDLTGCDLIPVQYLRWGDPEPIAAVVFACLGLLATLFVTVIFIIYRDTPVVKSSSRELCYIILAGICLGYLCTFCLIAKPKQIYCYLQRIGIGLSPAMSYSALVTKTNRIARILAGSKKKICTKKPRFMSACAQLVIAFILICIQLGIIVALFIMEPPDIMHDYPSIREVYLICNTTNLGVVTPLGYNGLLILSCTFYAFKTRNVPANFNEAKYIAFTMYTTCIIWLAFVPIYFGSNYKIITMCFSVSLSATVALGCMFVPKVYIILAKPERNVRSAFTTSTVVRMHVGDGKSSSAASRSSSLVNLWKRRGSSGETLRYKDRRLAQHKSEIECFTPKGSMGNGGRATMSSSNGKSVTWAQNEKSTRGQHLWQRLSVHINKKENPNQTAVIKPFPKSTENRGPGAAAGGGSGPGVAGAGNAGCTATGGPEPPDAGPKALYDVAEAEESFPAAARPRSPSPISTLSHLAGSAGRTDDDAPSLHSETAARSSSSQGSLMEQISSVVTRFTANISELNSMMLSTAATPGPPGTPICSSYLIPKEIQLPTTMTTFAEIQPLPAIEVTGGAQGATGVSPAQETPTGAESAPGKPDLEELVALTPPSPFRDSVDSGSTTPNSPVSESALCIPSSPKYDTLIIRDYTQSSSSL

Chain of Metabotropic glutamate receptor 5 (P31424 whole entry): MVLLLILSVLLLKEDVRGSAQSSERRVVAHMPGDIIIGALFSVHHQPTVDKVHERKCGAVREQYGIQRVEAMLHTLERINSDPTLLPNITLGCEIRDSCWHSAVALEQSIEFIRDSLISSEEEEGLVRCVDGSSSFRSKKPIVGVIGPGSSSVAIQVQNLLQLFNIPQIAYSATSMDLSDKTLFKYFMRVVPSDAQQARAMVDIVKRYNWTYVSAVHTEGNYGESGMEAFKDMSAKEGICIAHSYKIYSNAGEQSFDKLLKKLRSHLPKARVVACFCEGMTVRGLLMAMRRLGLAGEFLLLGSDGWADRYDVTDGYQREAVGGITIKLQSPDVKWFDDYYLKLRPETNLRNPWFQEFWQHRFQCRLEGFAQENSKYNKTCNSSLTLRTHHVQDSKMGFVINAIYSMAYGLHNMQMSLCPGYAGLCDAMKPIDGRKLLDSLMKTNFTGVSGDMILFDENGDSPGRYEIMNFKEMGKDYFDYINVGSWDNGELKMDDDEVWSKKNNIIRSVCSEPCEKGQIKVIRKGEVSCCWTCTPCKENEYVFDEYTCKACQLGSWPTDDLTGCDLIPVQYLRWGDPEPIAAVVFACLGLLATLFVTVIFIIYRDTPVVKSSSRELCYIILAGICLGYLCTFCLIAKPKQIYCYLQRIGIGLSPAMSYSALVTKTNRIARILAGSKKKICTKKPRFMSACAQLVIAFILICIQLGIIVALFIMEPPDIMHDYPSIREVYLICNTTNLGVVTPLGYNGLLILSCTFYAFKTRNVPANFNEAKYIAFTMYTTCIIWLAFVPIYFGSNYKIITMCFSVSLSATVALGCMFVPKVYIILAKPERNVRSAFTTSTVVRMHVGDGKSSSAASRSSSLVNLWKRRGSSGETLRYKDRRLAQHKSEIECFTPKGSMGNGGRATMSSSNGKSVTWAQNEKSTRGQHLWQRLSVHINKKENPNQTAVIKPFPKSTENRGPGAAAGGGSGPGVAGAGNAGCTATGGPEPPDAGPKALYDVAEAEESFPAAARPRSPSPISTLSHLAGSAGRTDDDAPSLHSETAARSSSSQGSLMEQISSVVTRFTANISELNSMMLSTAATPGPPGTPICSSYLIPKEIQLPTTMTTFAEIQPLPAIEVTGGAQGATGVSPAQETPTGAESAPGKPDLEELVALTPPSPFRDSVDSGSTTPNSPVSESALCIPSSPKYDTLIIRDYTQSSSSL

Compound: O=C(Nc1cncc(Oc2cncc(F)c2)n1)c1ccncn1
- IC50 [1]: > 30 µM

Compound: O=C(Nc1cncc(Oc2cncc(F)c2)n1)c1cccc(Cl)c1
- IC50 [1]: 0.118 µM
- %max [2]: 2%

Compound: O=C(Nc1cncc(Oc2cncc(F)c2)n1)c1cccc(Cl)n1
- IC50 [1]: > 30 µM

Compound: Cc1ccc(C(=O)Nc2cncc(Oc3cncnc3)n2)s1
- IC50 [1]: > 30 µM

Compound: Cc1ccnc(C(=O)Nc2cncc(Oc3cncc(F)c3)n2)c1
- IC50 [1]: 0.311 µM
- %max [2]: 1.7%

Compound: N#Cc1cc(F)cc(C(=O)Nc2cncc(Oc3cncc(F)c3)n2)c1
- IC50 [1]: > 30 µM

Compound: O=C(Nc1cncc(Oc2cncc(F)c2)n1)c1ccc(F)c(Cl)c1
- IC50 [1]: 4.59 µM
- %max [2]: -2.8%

Compound: O=C(Nc1cncc(Oc2cncc(F)c2)n1)c1ccccn1
- IC50 [1]: > 10 µM
- %max [2]: 40%

Compound: O=C(Nc1cncc(Oc2cncc(F)c2)n1)c1cc(Cl)ccn1
- IC50 [1]: 0.111 µM
- %max [2]: 2%

Compound: O=C(Nc1cncc(Oc2cncc(F)c2)n1)c1ccccc1
- %max [2]: -9.4%

Compound: O=C(Nc1cncc(Oc2cncc(F)c2)n1)c1cccc(Cl)c1F
- IC50 [1]: > 30 µM

Compound: O=C(Nc1cncc(Oc2cncnc2)n1)c1cccs1
- IC50 [1]: > 10 µM
- %max [2]: 20%

Compound: O=C(Nc1cncc(Oc2cncnc2)n1)c1ccccc1
- IC50 [1]: > 10 µM
- %max [2]: 12%

Compound: O=C(Nc1cncc(Oc2cncc(F)c2)n1)c1cccnn1
- IC50 [1]: > 30 µM

Compound: COc1cccc(C(=O)Nc2cncc(Oc3cncnc3)n2)c1
- %max [2]: -4.3%

Compound: Cc1csc(C(=O)Nc2cncc(Oc3cncc(F)c3)n2)n1
- IC50 [1]: > 10 µM
- %max [2]: 20%

Compound: N#Cc1cccc(C(=O)Nc2cncc(Oc3cncc(F)c3)n2)c1
- IC50 [1]: 0.662 µM
- %max [2]: 1.2%

Compound: O=C(Nc1cncc(Oc2cncc(F)c2)n1)c1cc(Cl)cc(Cl)c1
- IC50 [1]: > 30 µM

Compound: O=C(Nc1cncc(Oc2cncc(F)c2)n1)c1cscn1
- IC50 [1]: 8.43 µM
- %max [2]: 22%

Compound: COc1cc(OC)cc(C(=O)Nc2cncc(Oc3cncc(F)c3)n2)c1
- IC50 [1]: > 30 µM

Compound: O=C(Nc1cncc(Oc2cncc(F)c2)n1)c1nccs1
- IC50 [1]: > 10 µM
- %max [2]: 40%

Compound: O=C(Nc1cncc(Oc2cncnc2)n1)c1ccsc1
- IC50 [1]: > 10 µM
- %max [2]: 15%

Source: ChEMBL document CHEMBL3352741, “Discovery of VU0431316: a negative allosteric modulator of mGlu5 with activity in a mouse model of anxiety” (Bioorg Med Chem Lett, 2014)
